Measured values from US6410483B1, “Phenylsulfonylureas, processes for their preparation, and their use as herbicides and plant growth regulators” (Hoechst Schering AgrEvo GmbH, priority 1997, dated 2002).

melting point: 165 to 169 °C (dec.)
SMILES: COC(=O)NCCc1ccc(C(=O)OC)c(S(=O)(=O)NC(=O)Nc2nc(OC)cc(OC)n2)c1 [Example A5, Methyl 2-[(4,6-Dimethoxypyrimidin-2-yl)aminocarbonylaminosulfonyl]-4-[2-(methoxycarbonylamino)ethyl]benzoate]
